# Data taken from patent US10206889B2, “Emesis treatment” (Repurposed Therapeutics, Inc., priority 2009, dated 2019).
# Assays:
# [1] = tested on: xylazine-induced emesis in cats; assay: Xylazine-induced emesis in cats, with vomit scale and defensive behavior (anxiety) scoring; assay type: in vivo, cats (female domestic short-haired felines); conditions: for level of anxiety 15 minutes after treatment / protection against xylazine-induced emesis / cats vomited: FIG. 1, female cats; for protection against xylazine-induced emesis / cats vomited: fifteen minutes before 0.66 mg/kg xylazine SC, observed 30 minutes; for Defensive Behavior Scale / Mean Defensive Score / % Protection (vomiting) / Mean Latency (mean latency to retch/vomit): cats; for % Protection (vomiting) / Mean Latency (mean latency to retch/vomit): 20 minutes before xylazine 0.66 mg/kg; for anxiety-inducing effect in test subjects / effectiveness in preventing (chemically-induced) emesis: summary statement of the description, no dose given, test subjects
# Procedure: (i) 0.9% sodium chloride vehicle (n=6);
# […], 0.66 mg/kg xylazine was administered subcutaneously, and the test subjects where then observed for 30 minutes.
# Cats not susceptible to motion sickness were assigned to the xylazine testing group. Xylazine stimulates receptors on a pathway different from that used by motion sickness and thus served as a test of the generality of anti-emetic effects observed with motion testing.
# Prior to the evaluation of anti-emetic compounds, the production of an emetic response by xylazine in felines was confirmed in the laboratory. Cats were injected subcutaneously with either a freshly prepared solution of 0.66 mg/kg of xylazine in 0.9% sodium chloride or 0.9% sodium chloride vehicle, both adjusted to an injection volume of 0.1 ml/kg.
# One week following the confirmation of an emetic response by the cats, subject cats were given either vehicle or test compound/composition in 0.9% sodium chloride or vehicle (injection volume of 0.1 ml/kg) subcutaneously, 20 minutes before administration of xylazine. […] Animals were scored using the vomit scale developed by Sufi et al., 1979. Additional experiments were separated by at least a 1 week washout period.
# A. Vomit Scale Scoring: • 1. Sal I (licking—parasympathetic): 1 pt • 2. Sal II (drool, thin/frothy—early sympathetic): 2 pts • 3. Sal III (stringy saliva, dangles—sympathetic): 4 pts • 4. Defection: 8 pts • 5. Urination: 8 pts • 6. Wretch/vomiting: 16 pts
# B. Defensive Behavior Scale: • 1. No defensiveness: normal behavior; • 2. Slight defensiveness: retreating to the rear of the cage when approached and/or growling when being carried; • 3. […] Strong defensiveness: vigorous clawing and biting to prevent being handled. V. Statistical Methods
# Dose response curves were analyzed by Cochran's Q-test to establish significant effects. Paired comparisons were made using McNemar's test. Tests for line parallelism, relative potency and ED50 were based on least squares regression in a program for pharmacological statistics. The data from the nonparametric rating scale was analyzed using Friedman's analysis of variance model (ANOVA).
# [2] = molecular target: T1, 5-HT1A receptor (Human Ligand) (Homo sapiens, UniProt P08908); assay: 5-HT1A cellular function, antagonist; assay type: cell-based
# T1 sequence (P08908 1-422): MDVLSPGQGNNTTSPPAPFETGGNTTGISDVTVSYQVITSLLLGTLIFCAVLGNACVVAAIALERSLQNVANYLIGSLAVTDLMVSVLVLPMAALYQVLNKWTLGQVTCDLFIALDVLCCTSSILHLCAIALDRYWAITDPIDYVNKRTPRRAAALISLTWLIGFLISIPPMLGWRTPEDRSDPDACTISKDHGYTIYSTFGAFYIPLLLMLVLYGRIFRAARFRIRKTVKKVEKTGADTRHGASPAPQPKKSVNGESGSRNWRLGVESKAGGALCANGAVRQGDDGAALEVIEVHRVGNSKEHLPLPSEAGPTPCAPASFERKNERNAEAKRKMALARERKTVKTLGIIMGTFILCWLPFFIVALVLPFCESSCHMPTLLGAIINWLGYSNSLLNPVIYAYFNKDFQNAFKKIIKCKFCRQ
# [3] = molecular target: T1, 5-HT1A receptor (Human Ligand); assay: 5-HT1A cellular function, agonist; assay type: cell-based
# Procedure: The percent of control agonist response was recorded for several log concentrations of compounds/compositions.
# [4] = molecular target: T2, rat ligand of the 5-HT1A receptor (Rattus norvegicus, UniProt P19327); conditions: Cornfield 1991, Hadrava 1996, Dabrowska 2006; cited from earlier work
# T2 sequence (P19327 1-422): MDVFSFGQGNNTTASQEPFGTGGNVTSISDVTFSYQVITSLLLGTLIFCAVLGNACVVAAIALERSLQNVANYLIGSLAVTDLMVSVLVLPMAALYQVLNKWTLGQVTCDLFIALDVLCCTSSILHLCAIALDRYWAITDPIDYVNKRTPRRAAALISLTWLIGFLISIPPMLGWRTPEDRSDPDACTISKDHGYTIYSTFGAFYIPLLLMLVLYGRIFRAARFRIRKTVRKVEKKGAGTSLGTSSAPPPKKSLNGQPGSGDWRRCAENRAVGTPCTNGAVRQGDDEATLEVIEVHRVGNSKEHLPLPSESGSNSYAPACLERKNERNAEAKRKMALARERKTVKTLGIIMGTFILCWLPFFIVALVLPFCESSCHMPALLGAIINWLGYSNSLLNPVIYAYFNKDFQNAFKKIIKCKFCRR
Structure (SMILES),Defensive Behavior Scale ([1]; dose 0.16 mg/kg SC),Mean Defensive Score ([1]; dose 0.16 mg/kg SC),% Protection (vomiting) ([1]; dose 0.16 mg/kg SC),Mean Latency (mean latency to retch/vomit) ([1]; dose 0.16 mg/kg SC),"Cellular Function Antagonist (IC50, nM) [2]",type of agonism at the 5-HT1A receptor (previous findings) [4],level of anxiety 15 minutes after treatment ([1]; 0.08 mg/kg SC),cats vomited ([1]; 0.08 mg/kg SC),Defensive Behavior Scale ([1]; dose 0.08 mg/kg SC),Mean Defensive Score ([1]; dose 0.08 mg/kg SC),% Protection (vomiting) ([1]; dose 0.08 mg/kg SC),Mean Latency (mean latency to retch/vomit) ([1]; dose 0.08 mg/kg SC),anxiety-inducing effect in test subjects [1],effectiveness in preventing (chemically-induced) emesis [1],further results
"CCCN(CCC)C1CCc2cccc(O)c2C1 (racemic) [R/S-(+/−)-DPAT, (±)-8-Hydroxy-2-(dipropylamino)tetralin]",Moderate,2.0,100.00%,0.0 min,Inactive,,,,,,,,,,level of anxiety 15 minutes after treatment ([1]; 0.16 mg/kg SC): moderate level of anxiety; protection against xylazine-induced emesis ([1]; 0.16 mg/kg SC): 100%
"CCCN(CCC)[C@@H]1CCc2cccc(O)c2C1 [R-(+)-DPAT, R(+)-8-hydroxy-2-(dipropylamino)tetralin]",,,,,Inactive,full agonist,extreme level of anxiety,none of the cats vomited,Strong,3.0,100.00%,0.00 min,moderate to strong,100%,Cellular Function Agonist: type of agonism ([3]; listed as R(+)-8-OH-DPAT): Full Agonist; Defensive Behavior Scale ([1]; dose 0.02 mg/kg SC): Moderate; Mean Defensive Score ([1]; dose 0.02 mg/kg SC): 2.0; % Protection (vomiting) ([1]; dose 0.02 mg/kg SC): 100.00%; Mean Latency (mean latency to retch/vomit) ([1]; dose 0.02 mg/kg SC): 0.00 min; Defensive Behavior Scale ([1]; dose 0.04 mg/kg SC): Strong; Mean Defensive Score ([1]; dose 0.04 mg/kg SC): 3.0; % Protection (vomiting) ([1]; dose 0.04 mg/kg SC): 100.00%; Mean Latency (mean latency to retch/vomit) ([1]; dose 0.04 mg/kg SC): 0.00 min
"CCCN(CCC)[C@H]1CCc2cccc(O)c2C1 [S-(−)-DPAT, S(−)-8-hydroxy-2-(dipropylamino)tetralin]",None,0.0,85.71%,0.82 min,Inactive,partial agonist,did not show any anxiety,40%,None,0.0,75.00%,1.58 min,no anxiety or only slight anxiety,not fully effective,Cellular Function Agonist: type of agonism ([3]; listed as S(−)-8-OH-DPAT): Full Agonist; protection against xylazine-induced emesis ([1]; 0.08 mg/kg SC): 60%; Defensive Behavior Scale ([1]; dose 0.32 mg/kg SC): Slight; Mean Defensive Score ([1]; dose 0.32 mg/kg SC): 1.0; % Protection (vomiting) ([1]; dose 0.32 mg/kg SC): 80.00%; Mean Latency (mean latency to retch/vomit) ([1]; dose 0.32 mg/kg SC): 1.00 min
